From PubChem BioAssay AID1845206 (Molecular Pharmacology Branch, DTP, NCI, 2023)
“And” between values parts separate entries of the source, which are not always exact repeats. Equal values may be shown once. The source made the active and inactive calls. The calls were made as follows: active = viability on the fitted dose curve at most 10% of control; inactive = the rest.

Tested on: NCI-H1618 multicellular tumor spheroid viability
Assay: Anticancer human tumor NCI-H1618 cell line growth inhibition;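 also: spheroids exposed to agents for 7 days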
Conditions: for viability, T/C: stronger effect = lower value
Procedure, shortened: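 Complex tumor spheroids combined malignant cells with endothelial cells and mesenchymal stem cells. DNA-damaging drugs and DNA repair inhibitors were tested alone and in combination, at half-log dilutions down from clinical Cmax (top 10 microM if Cmax unknown), 0.25% DMSO final.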

[1] = curve of first compound, second compound 0.003 µM
[2] = curve of first compound, second compound 0.00949 µM
[3] = curve of first compound, second compound 0.03 µM
[4] = curve of first compound, second compound 0.0949 µM
[5] = curve of first compound, second compound 0.3 µM
[6] = second compound 0.003 µM, first compound 0.00949 µM
[7] = second compound 0.003 µM, first compound 0.03 µM
[8] = second compound 0.003 µM, first compound 0.0949 µM
[9] = second compound 0.003 µM, first compound 0.3 µM
[10] = second compound 0.003 µM, first compound 0.949 µM
[11] = second compound 0.003 µM, first compound 3 µM
[12] = second compound 0.00949 µM, first compound 0.00949 µM
[13] = second compound 0.00949 µM, first compound 0.03 µM
[14] = second compound 0.00949 µM, first compound 0.0949 µM
[15] = second compound 0.00949 µM, first compound 0.3 µM
[16] = second compound 0.00949 µM, first compound 0.949 µM
[17] = second compound 0.00949 µM, first compound 3 µM
[18] = second compound 0.03 µM, first compound 0.00949 µM
[19] = second compound 0.03 µM, first compound 0.03 µM
[20] = second compound 0.03 µM, first compound 0.0949 µM
[21] = second compound 0.03 µM, first compound 0.3 µM
[22] = second compound 0.03 µM, first compound 0.949 µM
[23] = second compound 0.03 µM, first compound 3 µM
[24] = second compound 0.0949 µM, first compound 0.00949 µM
[25] = second compound 0.0949 µM, first compound 0.03 µM
[26] = second compound 0.0949 µM, first compound 0.0949 µM
[27] = second compound 0.0949 µM, first compound 0.3 µM
[28] = second compound 0.0949 µM, first compound 0.949 µM
[29] = second compound 0.0949 µM, first compound 3 µM
[30] = second compound 0.3 µM, first compound 0.00949 µM
[31] = second compound 0.3 µM, first compound 0.03 µM
[32] = second compound 0.3 µM, first compound 0.0949 µM
[33] = second compound 0.3 µM, first compound 0.3 µM
[34] = second compound 0.3 µM, first compound 0.949 µM
[35] = second compound 0.3 µM, first compound 3 µM

With `Cn1ncnc1[C@H]1c2n[nH]c(=O)c3cc(F)cc(c23)N[C@@H]1c1ccc(F)cc1` + CC[C@@]1(O)C(=O)OCc2c1cc1n(c2=O)Cc2cc3c(CN(C)C)c(O)ccc3nc2-1 the IC50 [1] was < 9.49 nM, the IC50 [2] was < 9.49 nM and the IC50 [3] was < 9.49 nM. The IC50 [4] was < 9.49 nM, the IC50 [5] was < 9.49 nM and the viability, T/C [6] was 27.3%. It also gave a viability, T/C [7] of 6.33%, a viability, T/C [8] of 1.47% and a viability, T/C [9] of 1.41%. It also gave a viability, T/C [10] of 1.48%, a viability, T/C [11] of 2.21% and a viability, T/C [12] of 1.59%. The viability, T/C [13] was 2.38%, the viability, T/C [14] was 1.8% and the viability, T/C [15] was 1.98%. The viability, T/C [16] was 3.83%, the viability, T/C [17] was 1.52% and the viability, T/C [18] was 1.39%. The viability, T/C [19] was 3.65%, the viability, T/C [20] was 1.38% and the viability, T/C [21] was 1.56%. For the same compound, the viability, T/C [22] was 1.83%, the viability, T/C [23] was 1.87% and the viability, T/C [24] was 1.47%. For the same compound, the viability, T/C [25] was 1.59%, the viability, T/C [26] was 1.43% and the viability, T/C [27] was 1.39%. The viability, T/C [28] was 1.38%, the viability, T/C [29] was 1.57% and the viability, T/C [30] was 1.23%. It also gave a viability, T/C [31] of 1.22%, a viability, T/C [32] of 1.27% and a viability, T/C [33] of 1.22%. For the same compound, the viability, T/C [34] was 1.24% and the viability, T/C [35] was 1.3%.
`Cc1cc(C)c(CNC(=O)c2cc(-c3ccc(CN4CCOCC4)cc3)cc3c2cnn3C2CCCC2)c(=O)[nH]1` was tested, and the viability, T/C (compound 0.0316 µM) was 90.5% and 97.2% and 101%, the viability, T/C (compound 0.1 µM) was 103% and 101% and 107% and the viability, T/C (compound 0.316 µM) was 89.7% and 98.2% and 101%. The viability, T/C (compound 1 µM) was 94.6% and 94.8% and 99%, the viability, T/C (compound 3.16 µM) was 89% and 95.3% and 95.9% and the viability, T/C (compound 10 µM) was 76.2% and 95.1% and 88.9%. For the same compound, the IC50 (curve of compound) was > 10000 nM.
For `CNCc1ccc(-c2cc(-c3nc(-c4ccc(S(=O)(=O)C(C)C)cc4)cnc3N)on2)cc1` + CC[C@@]1(O)C(=O)OCc2c1cc1n(c2=O)Cc2cc3c(CN(C)C)c(O)ccc3nc2-1, the IC50 [1] was 187 nM, the IC50 [2] was < 9.49 nM and the IC50 [3] was < 9.49 nM. For the same compound, the IC50 [4] was < 9.49 nM, the IC50 [5] was < 9.49 nM and the viability, T/C [6] was 95.1%. The viability, T/C [7] was 94%, the viability, T/C [8] was 61.7% and the viability, T/C [9] was 44.8%. For the same compound, the viability, T/C [10] was 1.59%, the viability, T/C [11] was 0.23% and the viability, T/C [12] was 20.6%. It also gave a viability, T/C [13] of 77.9%, a viability, T/C [14] of 34.5% and a viability, T/C [15] of 1.73%. The viability, T/C [16] was 0.75%, the viability, T/C [17] was 0.62% and the viability, T/C [18] was 1.33%. The viability, T/C [19] was 15.5%, the viability, T/C [20] was 1.54% and the viability, T/C [21] was 1.41%. It also gave a viability, T/C [22] of 0.72%, a viability, T/C [23] of 0.23% and a viability, T/C [24] of 1.38%. For the same compound, the viability, T/C [25] was 14%, the viability, T/C [26] was 1.35% and the viability, T/C [27] was 1.36%. It also gave a viability, T/C [28] of 0.81%, a viability, T/C [29] of 0.45% and a viability, T/C [30] of 1.25%. It also gave a viability, T/C [31] of 1.26%, a viability, T/C [32] of 1.42% and a viability, T/C [33] of 1.51%. It also gave a viability, T/C [34] of 17.5% and a viability, T/C [35] of 0.43%.
In the case of `Cc1sc2c(c1C)C(c1ccc(Cl)cc1)=NC(CC(=O)Nc1ccc(O)cc1)c1nnc(C)n1-2` (centres undefined), the viability, T/C (compound 0.00949 µM) is reported as 109% (2×) and 110%, the viability, T/C (compound 0.03 µM) is reported as 105% and 108% and 115% and the outcome (compound 0.0949 µM) is reported as “inactive”. For the same compound, the viability, T/C (compound 0.0949 µM) was 100%, the viability, T/C (compound 0.3 µM) was 102% and 95.7% and 56.4% and the viability, T/C (compound 0.949 µM) was 91.1% and 80.5% and 47%. For the same compound, the viability, T/C (compound 3 µM) was 33.8% and 35.4% and 16.8% and the IC50 (curve of compound) was 2160 nM and 2060 nM and 567 nM.
With `CC1COCCN1c1cc(-c2ccnn2C)c2ccnc(-c3ccn[nH]3)c2n1` (centres undefined) + CC[C@@]1(O)C(=O)OCc2c1cc1n(c2=O)Cc2cc3c(CN(C)C)c(O)ccc3nc2-1 the IC50 [1] was < 31.6 nM, the IC50 [2] was < 31.6 nM and the IC50 [3] was < 31.6 nM. The IC50 [4] was < 31.6 nM, the IC50 [5] was < 31.6 nM and the viability, T/C (second compound 0.003 µM, first compound 0.0316 µM) was 29.3%. It also gave a viability, T/C (second compound 0.003 µM, first compound 0.1 µM) of 15.1%, a viability, T/C (second compound 0.003 µM, first compound 0.316 µM) of 7% and a viability, T/C (second compound 0.003 µM, first compound 1 µM) of 2.06%. It also gave a viability, T/C (second compound 0.003 µM, first compound 3.16 µM) of 2.27%, a viability, T/C (second compound 0.003 µM, first compound 10 µM) of 0.99% and a viability, T/C (second compound 0.00949 µM, first compound 0.0316 µM) of 7.33%. It also gave a viability, T/C (second compound 0.00949 µM, first compound 0.1 µM) of 4.63%, a viability, T/C (second compound 0.00949 µM, first compound 0.316 µM) of 4.22% and a viability, T/C (second compound 0.00949 µM, first compound 1 µM) of 2.35%. For the same compound, the viability, T/C (second compound 0.00949 µM, first compound 3.16 µM) was 2.23%, the viability, T/C (second compound 0.00949 µM, first compound 10 µM) was 1.12% and the viability, T/C (second compound 0.03 µM, first compound 0.0316 µM) was 2.57%. It also gave a viability, T/C (second compound 0.03 µM, first compound 0.1 µM) of 3.94%, a viability, T/C (second compound 0.03 µM, first compound 0.316 µM) of 3.52% and a viability, T/C (second compound 0.03 µM, first compound 1 µM) of 1.99%. It also gave a viability, T/C (second compound 0.03 µM, first compound 3.16 µM) of 1.19%, a viability, T/C (second compound 0.03 µM, first compound 10 µM) of 0.71% and a viability, T/C (second compound 0.0949 µM, first compound 0.0316 µM) of 3.01%. It also gave a viability, T/C (second compound 0.0949 µM, first compound 0.1 µM) of 2.44%, a viability, T/C (second compound 0.0949 µM, first compound 0.316 µM) of 5% and a viability, T/C (second compound 0.0949 µM, first compound 1 µM) of 2.35%. For the same compound, the viability, T/C (second compound 0.0949 µM, first compound 3.16 µM) was 2.1%, the viability, T/C (second compound 0.0949 µM, first compound 10 µM) was 0.81% and the viability, T/C (second compound 0.3 µM, first compound 0.0316 µM) was 1.79%. For the same compound, the viability, T/C (second compound 0.3 µM, first compound 0.1 µM) was 1.4%, the viability, T/C (second compound 0.3 µM, first compound 0.316 µM) was 1.52% and the viability, T/C (second compound 0.3 µM, first compound 1 µM) was 1.45%. It also gave a viability, T/C (second compound 0.3 µM, first compound 3.16 µM) of 0.77% and a viability, T/C (second compound 0.3 µM, first compound 10 µM) of 0.65%.
`CC(C)n1c(=O)n(C)c2cnc3cc(F)c(-c4ccc(OCCCN5CCCCC5)nc4)cc3c21` was tested, and the viability, T/C (compound 0.0316 µM) was 92.6% and 97.3% and 82.8%, the outcome (compound 0.1 µM) was “inactive” and the viability, T/C (compound 0.1 µM) was 93.1% and 105%. The viability, T/C (compound 0.316 µM) was 85.2% and 96.6% and 100%, the outcome (compound 1 µM) was “inactive” and the viability, T/C (compound 1 µM) was 80.8% and 86.8%. For the same compound, the viability, T/C (compound 3.16 µM) was 75.5% and 87.7% and 75.1%, the viability, T/C (compound 10 µM) was 58.1% and 89.4% and 54.3% and the IC50 (curve of compound) was > 10000 nM.
